# From ChEMBL document CHEMBL1201862, “PubChem BioAssay data set” (2004)
# Activity calls are given as the source filed them.
# Assays:
# SUMO-activating enzyme = SUMO-activating enzyme (Homo sapiens, UniProt Q9UBT2); test: blockers of UBC9-mediated SUMO conjugation – biochemical, AlphaScreen, SUMOylation inhibitor project, confirmation (AID 2018); assay type: functional
# [1] = target: T1, Tyrosine-protein phosphatase non-receptor type 7 (Homo sapiens, UniProt P35236); assay type: functional
# T1 sequence (P35236 whole entry): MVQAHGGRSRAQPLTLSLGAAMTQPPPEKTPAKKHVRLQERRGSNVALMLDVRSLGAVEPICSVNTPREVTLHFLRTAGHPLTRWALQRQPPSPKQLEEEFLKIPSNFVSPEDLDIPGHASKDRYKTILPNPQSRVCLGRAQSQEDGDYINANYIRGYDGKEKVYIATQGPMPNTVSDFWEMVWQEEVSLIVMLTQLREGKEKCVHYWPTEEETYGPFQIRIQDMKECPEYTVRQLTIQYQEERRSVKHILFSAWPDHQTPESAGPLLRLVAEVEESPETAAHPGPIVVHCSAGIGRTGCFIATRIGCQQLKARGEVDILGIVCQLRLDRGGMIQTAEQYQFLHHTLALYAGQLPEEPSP
# [2] = target: T2, Tyrosine-protein phosphatase non-receptor type 22 (Homo sapiens, UniProt Q9Y2R2); assay type: functional
# T2 sequence (Q9Y2R2 whole entry): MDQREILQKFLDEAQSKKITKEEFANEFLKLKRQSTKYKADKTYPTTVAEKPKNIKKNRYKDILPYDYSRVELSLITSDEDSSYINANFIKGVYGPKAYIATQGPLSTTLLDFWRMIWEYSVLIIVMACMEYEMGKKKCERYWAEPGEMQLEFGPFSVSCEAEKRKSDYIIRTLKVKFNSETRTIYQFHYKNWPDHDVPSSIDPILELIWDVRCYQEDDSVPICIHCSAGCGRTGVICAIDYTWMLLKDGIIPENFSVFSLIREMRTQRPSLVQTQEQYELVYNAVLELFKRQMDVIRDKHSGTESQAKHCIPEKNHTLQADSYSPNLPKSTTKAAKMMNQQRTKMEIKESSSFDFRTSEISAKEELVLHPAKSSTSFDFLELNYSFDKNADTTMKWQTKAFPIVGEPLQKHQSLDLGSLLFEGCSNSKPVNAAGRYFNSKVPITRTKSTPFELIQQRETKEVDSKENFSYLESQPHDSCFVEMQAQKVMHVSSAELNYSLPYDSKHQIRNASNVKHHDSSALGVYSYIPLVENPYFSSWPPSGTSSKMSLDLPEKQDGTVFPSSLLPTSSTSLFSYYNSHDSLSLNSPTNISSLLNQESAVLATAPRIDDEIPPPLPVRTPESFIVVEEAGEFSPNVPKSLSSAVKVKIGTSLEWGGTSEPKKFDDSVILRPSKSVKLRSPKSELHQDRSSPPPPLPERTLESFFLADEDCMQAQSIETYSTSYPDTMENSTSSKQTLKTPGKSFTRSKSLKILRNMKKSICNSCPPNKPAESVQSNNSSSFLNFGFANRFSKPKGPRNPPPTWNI
# [3] = target: T2, Tyrosine-protein phosphatase non-receptor type 22; assay type: functional; remark: listed apart in the source
# [4] = target: T3, RNA-binding protein pos-1 (Caenorhabditis elegans, UniProt G5EF15); test: disruptors of C. elegans POS-1 RNA interaction – biochemical, fluorescence polarization, dose response (AID 1964);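 note: purified POS-1 fused to maltose binding protein made in E. coli; potency of compounds blocking POS-1 binding to fluorescent RNA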
# T3 sequence (G5EF15 whole entry): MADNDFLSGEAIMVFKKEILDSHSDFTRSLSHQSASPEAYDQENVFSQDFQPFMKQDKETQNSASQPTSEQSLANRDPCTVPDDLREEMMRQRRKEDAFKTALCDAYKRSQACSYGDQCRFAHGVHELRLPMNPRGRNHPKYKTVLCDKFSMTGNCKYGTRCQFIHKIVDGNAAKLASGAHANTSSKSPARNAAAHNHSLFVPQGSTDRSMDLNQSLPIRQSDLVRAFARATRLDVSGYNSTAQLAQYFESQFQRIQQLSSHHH
# [5] = target: T4, Zinc finger protein mex-5 (Caenorhabditis elegans, UniProt Q9XUB2); test: potency of MEX-5 RNA-binding blockers – biochemical, C. elegans, fluorescence polarization, dose response (AID 1960)
# T4 sequence (Q9XUB2 whole entry): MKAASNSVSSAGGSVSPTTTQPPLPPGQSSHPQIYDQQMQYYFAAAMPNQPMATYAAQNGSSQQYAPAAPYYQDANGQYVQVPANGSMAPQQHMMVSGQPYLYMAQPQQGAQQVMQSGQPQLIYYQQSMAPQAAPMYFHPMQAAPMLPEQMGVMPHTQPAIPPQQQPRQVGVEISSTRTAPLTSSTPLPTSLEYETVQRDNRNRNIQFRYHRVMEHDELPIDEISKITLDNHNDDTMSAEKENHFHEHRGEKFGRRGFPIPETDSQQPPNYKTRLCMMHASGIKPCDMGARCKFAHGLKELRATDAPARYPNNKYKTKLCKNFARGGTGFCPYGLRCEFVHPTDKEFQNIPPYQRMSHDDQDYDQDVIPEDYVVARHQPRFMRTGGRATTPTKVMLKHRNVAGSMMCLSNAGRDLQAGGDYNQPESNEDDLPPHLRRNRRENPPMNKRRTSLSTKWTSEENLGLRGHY
# [6] = target: T5, G-protein coupled receptor 55 (Homo sapiens, UniProt Q9Y2T6); test: selective activators of receptor GPR55 – imaging, U2OS cells, beta-arrestin-GFP redistribution, primary screen (AID 1961); assay type: functional
# T5 sequence (Q9Y2T6 whole entry): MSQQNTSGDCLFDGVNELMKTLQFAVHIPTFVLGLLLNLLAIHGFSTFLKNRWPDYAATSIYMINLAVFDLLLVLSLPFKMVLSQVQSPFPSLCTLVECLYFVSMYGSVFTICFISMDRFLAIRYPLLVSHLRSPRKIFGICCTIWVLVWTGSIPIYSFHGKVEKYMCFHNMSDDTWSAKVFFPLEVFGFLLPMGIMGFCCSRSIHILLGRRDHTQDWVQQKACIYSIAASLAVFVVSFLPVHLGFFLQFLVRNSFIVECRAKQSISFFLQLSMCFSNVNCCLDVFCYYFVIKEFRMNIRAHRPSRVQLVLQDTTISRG
# [7] = target: Glyceraldehyde-3-phosphate dehydrogenase (Homo sapiens, UniProt P04406)
# [8] = target: Alkaline phosphatase, placental type (Homo sapiens, UniProt P05187); test: human placental alkaline phosphatase inhibition – biochemical, luminescence, confirmation (AID 1512); assay type: functional
# Chain of Alkaline phosphatase, placental type (P05187 whole entry): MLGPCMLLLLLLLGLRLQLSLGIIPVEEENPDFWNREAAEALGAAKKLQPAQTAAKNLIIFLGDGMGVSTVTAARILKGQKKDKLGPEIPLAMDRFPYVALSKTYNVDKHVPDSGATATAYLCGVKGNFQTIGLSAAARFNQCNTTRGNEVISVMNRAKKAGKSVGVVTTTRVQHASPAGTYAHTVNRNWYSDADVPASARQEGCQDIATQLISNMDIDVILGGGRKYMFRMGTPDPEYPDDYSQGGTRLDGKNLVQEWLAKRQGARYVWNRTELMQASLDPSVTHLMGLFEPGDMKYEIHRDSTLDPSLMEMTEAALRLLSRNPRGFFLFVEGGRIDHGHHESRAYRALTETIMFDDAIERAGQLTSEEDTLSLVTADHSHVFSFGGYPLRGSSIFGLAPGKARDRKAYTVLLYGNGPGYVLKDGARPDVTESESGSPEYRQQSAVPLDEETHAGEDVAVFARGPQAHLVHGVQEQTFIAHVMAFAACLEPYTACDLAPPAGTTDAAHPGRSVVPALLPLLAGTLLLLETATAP
# [9] = target: T6, Alkaline phosphatase, tissue-nonspecific isozyme (Homo sapiens, UniProt P05186); test: potency against alkaline phosphatase TNAP – biochemical, luminescent, dose response, SAR follow-up (AID 1056)
# T6 sequence (P05186 whole entry): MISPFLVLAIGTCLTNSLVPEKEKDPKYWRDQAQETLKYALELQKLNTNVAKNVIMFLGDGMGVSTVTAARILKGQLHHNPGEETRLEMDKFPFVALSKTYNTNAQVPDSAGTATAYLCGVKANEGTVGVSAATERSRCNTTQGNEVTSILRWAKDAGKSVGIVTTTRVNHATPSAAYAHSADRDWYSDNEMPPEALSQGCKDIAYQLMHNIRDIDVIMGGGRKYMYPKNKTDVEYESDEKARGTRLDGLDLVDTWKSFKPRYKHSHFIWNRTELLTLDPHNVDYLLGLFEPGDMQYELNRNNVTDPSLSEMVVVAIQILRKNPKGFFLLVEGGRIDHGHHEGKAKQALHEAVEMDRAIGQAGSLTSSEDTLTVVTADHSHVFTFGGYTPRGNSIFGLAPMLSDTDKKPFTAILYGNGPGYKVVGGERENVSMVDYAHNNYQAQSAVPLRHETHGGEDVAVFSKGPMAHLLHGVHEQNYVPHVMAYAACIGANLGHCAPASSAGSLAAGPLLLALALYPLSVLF
# [10] = tested on: Streptococcus sp. 'group A'; test: Streptococcus pyogenes SK(-)GAS viability under kanamycin – luminescence, BacTiterGlo, confirmation, counter-screen for streptokinase expression inhibitor project, dose response (AID 1900); assay type: functional, organism-based
# [11] = Trypanosoma cruzi growth suppression in host cells – NIH3T3 host cells, beta-gal luminescence, confirmation (AID 2044); assay type: functional, cell-based;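 note: intracellular parasites grown in NIH/3T3 mouse fibroblasts as host cells; luminescent beta-galactosidase reporter signal from transgenic T. cruzi replicating inside host cells; inhibitors lower the luminescence signal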
# [12] = microbe, parasite or virus in culture; assay type: functional; details: Mycobacterium tuberculosis
# [13] = NIH3T3 cell viability loss – ATP luminescence, mouse fibroblasts, counter-screen, dose response (AID 2010); assay type: functional, cell-based;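 note: cells exposed to compound for about 90 hours before reading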
# Streptococcus = test: GAS UMAA2166 growth inhibition – luminescence, BacTiterGlo, counter-screen for streptokinase expression inhibitor project, dose response (AID 1915); assay type: functional, organism-based;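 note: potency for reduction of bacterial viability or growth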
# [14] = THP-1 cell cytotoxicity, dose response, cytotoxicity control for non-replicating M. tuberculosis project (AID 489025); assay type: functional
# [15] = HepG2 cell cytotoxicity, dose response, cytotoxicity control for non-replicating M. tuberculosis project (AID 489018); assay type: functional; details: Mycobacterium tuberculosis
# cells [16] = assay type: functional
# HEK293 = test: EBV LMP1 TES2 canonical NF-kB signalling blockers – cell-based, HEK293, luciferase, cherry-pick, dose response (AID 588343); assay type: functional; details: Homo sapiens
# P388/ADR = test: cells; assay type: functional; details: Mus musculus
# SN12K1 = test: cells; assay type: functional; details: Homo sapiens
# P388 = test: cells; assay type: functional; details: Mus musculus
# cells [17] = test: cells
# [18] = target: Induced myeloid leukemia cell differentiation protein Mcl-1 (Homo sapiens, UniProt Q07820); assay type: functional
# Chain of Induced myeloid leukemia cell differentiation protein Mcl-1 (Q07820 whole entry): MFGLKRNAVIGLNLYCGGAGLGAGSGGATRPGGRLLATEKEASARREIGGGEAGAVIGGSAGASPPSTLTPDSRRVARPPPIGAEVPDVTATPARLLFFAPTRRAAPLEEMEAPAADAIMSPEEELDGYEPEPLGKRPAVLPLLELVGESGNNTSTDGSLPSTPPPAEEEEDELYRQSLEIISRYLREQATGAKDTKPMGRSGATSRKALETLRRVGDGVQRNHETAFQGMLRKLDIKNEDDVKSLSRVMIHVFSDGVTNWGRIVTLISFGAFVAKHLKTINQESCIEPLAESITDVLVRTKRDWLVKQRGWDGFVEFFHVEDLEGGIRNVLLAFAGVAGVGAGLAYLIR
# [19] = target: Glucose-6-phosphate 1-dehydrogenase (Homo sapiens, UniProt P11413); test: inhibition of Homo sapiens G6PD, dose series – biochemical, fluorescence, selectivity assay for P. falciparum G6PD inhibitor project, dose response (AID 504792); assay type: functional
# Chain of Glucose-6-phosphate 1-dehydrogenase (P11413 whole entry): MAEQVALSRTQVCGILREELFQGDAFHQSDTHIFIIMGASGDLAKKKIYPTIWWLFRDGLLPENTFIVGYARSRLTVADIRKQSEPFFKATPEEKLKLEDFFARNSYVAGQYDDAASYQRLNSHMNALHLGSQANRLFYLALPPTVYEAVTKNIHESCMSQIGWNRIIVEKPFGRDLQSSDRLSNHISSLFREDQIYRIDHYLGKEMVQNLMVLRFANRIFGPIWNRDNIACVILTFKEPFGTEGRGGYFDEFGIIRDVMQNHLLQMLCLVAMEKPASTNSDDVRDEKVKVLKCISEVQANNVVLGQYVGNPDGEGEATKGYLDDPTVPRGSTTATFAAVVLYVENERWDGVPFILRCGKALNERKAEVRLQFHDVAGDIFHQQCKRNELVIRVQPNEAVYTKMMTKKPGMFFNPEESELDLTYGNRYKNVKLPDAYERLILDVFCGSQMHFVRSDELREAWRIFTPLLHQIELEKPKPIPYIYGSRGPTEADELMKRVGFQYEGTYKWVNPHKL
# Beta-galactosidase = Beta-galactosidase (Escherichia coli, UniProt Q8VNN2); test: detection-enzyme interference by beta-gal modulators – biochemical, E. coli enzyme, set 3, artefact control for CCR6 antagonist project, dose response (AID 504712); assay type: functional
# Chain of Beta-galactosidase (Q8VNN2 whole entry): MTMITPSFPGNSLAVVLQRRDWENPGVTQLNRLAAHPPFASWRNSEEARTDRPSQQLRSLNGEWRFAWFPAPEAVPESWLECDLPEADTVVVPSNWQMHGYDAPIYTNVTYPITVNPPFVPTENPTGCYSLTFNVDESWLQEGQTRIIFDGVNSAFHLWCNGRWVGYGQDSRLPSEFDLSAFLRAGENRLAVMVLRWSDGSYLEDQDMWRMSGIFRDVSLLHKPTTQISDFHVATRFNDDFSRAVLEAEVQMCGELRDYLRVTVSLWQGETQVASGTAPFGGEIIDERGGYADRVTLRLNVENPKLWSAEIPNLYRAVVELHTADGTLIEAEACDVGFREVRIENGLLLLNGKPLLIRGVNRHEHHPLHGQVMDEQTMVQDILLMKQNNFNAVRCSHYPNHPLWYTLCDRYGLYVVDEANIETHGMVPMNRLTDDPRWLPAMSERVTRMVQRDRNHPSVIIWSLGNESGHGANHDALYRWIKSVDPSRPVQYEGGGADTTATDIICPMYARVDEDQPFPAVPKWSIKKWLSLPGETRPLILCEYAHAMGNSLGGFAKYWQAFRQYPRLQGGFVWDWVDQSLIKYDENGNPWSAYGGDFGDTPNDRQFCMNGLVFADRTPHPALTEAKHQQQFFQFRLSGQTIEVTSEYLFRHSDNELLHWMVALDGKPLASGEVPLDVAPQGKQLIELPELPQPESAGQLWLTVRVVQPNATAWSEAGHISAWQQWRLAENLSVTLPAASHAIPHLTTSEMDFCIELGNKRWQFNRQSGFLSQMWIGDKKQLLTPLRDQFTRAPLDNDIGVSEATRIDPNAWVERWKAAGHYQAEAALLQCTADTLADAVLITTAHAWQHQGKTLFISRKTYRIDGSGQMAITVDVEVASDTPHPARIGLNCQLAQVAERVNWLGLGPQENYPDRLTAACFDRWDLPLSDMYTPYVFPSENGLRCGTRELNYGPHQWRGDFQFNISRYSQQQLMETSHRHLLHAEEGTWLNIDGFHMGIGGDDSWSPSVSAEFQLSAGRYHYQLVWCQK
# [20] = target: Heat shock protein HSP 90-alpha (Homo sapiens, UniProt P07900); assay type: functional, organism-based
# Cannabinoid receptor 2 [21] = target: T7, Cannabinoid receptor 2 (Homo sapiens, UniProt P34972); test: SAR analysis of antagonists of the Cannabinoid Receptor 2 using an Image-Based Assay - Set 2. [Related pubchem assays (depositor defined):AID1961, AID1965]; assay type: functional
# T7 sequence (P34972 whole entry): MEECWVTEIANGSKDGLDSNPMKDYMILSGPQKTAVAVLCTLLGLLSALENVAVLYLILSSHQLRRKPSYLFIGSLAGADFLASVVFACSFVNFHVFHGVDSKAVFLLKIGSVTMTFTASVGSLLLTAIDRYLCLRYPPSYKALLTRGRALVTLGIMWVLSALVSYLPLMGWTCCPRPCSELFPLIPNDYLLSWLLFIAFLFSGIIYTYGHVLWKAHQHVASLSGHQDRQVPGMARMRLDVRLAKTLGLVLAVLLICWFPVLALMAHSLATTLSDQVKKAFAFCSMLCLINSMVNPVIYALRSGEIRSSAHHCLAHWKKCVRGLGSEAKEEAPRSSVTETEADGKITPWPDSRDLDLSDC
# [22] = target: T5, G-protein coupled receptor 55; test: SAR analysis of selective Agonists of GPR55 using an Image-Based Assay - Set 2. [Related pubchem assays (depositor defined):AID1961, AID1965]; assay type: functional
# Cannabinoid receptor 2 [23] = target: T7, Cannabinoid receptor 2; test: SAR analysis of agonists of the Cannabinoid Receptor 2 using an Image-Based Assay - Set 2. [Related pubchem assays (depositor defined):AID1961, AID1965]; assay type: functional
# [24] = target: T8, G-protein coupled receptor 35 (Homo sapiens, UniProt Q9HC97); test: SAR analysis of Agonists of the GPR35 Receptor using an Image-Based Assay - Set 3. [Related pubchem assays (depositor defined):AID1961, AID1965]; assay type: functional
# T8 sequence (Q9HC97 whole entry): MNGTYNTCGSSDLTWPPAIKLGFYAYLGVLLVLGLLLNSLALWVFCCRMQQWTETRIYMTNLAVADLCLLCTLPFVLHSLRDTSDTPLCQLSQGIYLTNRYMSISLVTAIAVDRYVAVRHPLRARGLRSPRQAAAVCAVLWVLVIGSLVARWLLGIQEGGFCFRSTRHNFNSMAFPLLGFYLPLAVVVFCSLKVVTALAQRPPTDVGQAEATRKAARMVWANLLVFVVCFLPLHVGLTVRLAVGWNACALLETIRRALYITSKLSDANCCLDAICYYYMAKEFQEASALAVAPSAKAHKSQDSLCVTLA
# Cannabinoid receptor 1 [25] = target: T9, Cannabinoid receptor 1 (Homo sapiens, UniProt P21554); test: SAR analysis of antagonists of the Cannabinoid Receptor 1 using an Image-Based Assay - Set 3. [Related pubchem assays (depositor defined):AID1961, AID1965]; assay type: functional
# T9 sequence (P21554 whole entry): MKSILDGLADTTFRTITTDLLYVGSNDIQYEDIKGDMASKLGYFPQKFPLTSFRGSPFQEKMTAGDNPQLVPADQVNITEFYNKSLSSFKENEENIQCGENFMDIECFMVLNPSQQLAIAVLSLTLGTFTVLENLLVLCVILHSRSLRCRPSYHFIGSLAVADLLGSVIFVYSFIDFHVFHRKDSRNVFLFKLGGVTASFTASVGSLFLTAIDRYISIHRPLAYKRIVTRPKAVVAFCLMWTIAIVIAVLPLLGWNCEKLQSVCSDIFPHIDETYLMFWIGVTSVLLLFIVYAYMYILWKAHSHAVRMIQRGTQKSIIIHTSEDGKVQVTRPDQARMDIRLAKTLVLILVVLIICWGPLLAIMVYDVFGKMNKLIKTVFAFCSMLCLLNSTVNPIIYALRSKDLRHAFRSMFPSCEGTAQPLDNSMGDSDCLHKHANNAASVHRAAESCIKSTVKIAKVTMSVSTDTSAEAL
# Cannabinoid receptor 1 [26] = target: T9, Cannabinoid receptor 1; test: SAR analysis of agonists of the Cannabinoid Receptor 1 using an Image-Based Assay - Set 3. [Related pubchem assays (depositor defined):AID1961, AID1965]; assay type: functional
# [27] = target: T8, G-protein coupled receptor 35; test: SAR analysis of Antagonists of the GPR35 Receptor using an Image-Based Assay - Set 4. [Related pubchem assays (depositor defined):[…]]; assay type: functional
# Chain of SUMO-activating enzyme (Q9UBE0 whole entry): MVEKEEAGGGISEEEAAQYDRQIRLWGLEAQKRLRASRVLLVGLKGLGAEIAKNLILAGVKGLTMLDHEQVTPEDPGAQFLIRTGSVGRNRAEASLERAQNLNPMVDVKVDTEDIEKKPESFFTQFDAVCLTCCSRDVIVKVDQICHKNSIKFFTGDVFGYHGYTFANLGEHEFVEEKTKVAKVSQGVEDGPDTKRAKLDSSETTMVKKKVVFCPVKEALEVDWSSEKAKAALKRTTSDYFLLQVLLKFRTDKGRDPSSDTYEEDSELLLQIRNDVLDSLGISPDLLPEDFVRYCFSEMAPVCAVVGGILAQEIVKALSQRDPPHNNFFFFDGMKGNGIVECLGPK
# Chain of SUMO-activating enzyme (Q9UBT2 whole entry): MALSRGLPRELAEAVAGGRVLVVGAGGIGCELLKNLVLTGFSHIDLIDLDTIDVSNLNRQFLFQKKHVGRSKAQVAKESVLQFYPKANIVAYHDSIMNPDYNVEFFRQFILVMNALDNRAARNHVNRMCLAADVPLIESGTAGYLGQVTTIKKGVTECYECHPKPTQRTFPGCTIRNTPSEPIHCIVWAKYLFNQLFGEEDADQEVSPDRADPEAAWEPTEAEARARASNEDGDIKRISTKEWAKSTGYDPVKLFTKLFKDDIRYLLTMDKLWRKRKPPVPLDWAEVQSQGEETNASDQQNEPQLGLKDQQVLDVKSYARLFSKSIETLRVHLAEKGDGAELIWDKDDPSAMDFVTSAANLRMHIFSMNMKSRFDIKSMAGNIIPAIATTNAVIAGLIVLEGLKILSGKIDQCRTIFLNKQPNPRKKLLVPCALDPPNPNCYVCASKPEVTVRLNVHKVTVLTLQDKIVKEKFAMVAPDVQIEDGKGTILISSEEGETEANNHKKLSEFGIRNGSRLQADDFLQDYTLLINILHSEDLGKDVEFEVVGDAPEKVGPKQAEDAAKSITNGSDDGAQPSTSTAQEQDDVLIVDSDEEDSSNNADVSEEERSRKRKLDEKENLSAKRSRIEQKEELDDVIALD
structure (smiles),measurement,setting,value
NC(=O)CC(NC(=O)Cc1ccc(Br)cc1)c1ccc(NCCc2ccccc2F)c([N+](=O)[O-])c1 (centres undefined),IC50,SUMO-activating enzyme,78.2 µM (active)
CC(C)Cc1nc(S(=O)(=O)c2ccc(Cl)cc2)c(N2CCOCC2)o1,IC50,[1],> 79.4 µM (inactive)
same,IC50,[2],> 79.4 µM (inactive)
same,IC50,[3],> 79.4 µM (inactive)
COc1cc2c(cc1OC)C(c1ccc(-c3ccc(Cl)cc3Cl)o1)=NCC2,EC50,[4],> 300 µM (not active)
same,EC50,[5],> 300 µM (not active)
same,EC50,[6],> 32 µM (inactive)
CCCc1nn(C(C)=O)c2c1C(=O)CC(C)(C)C2,IC50,[7],> 100 µM (not active)
same,IC50,[8],> 100 µM (inactive)
same,IC50,[9],19.1 µM (active)
CO[C@@]12[C@H](COC(N)=O)C3=C(C(=O)C(C)=C(N)C3=O)N1C[C@H]1[C@@H]2N1C (some centres undefined) [PORFIROMYCIN],EC50,[10],< 0.06 µM (active)
same,EC50,[11],< 0.1 µM (active)
same,CC50,[12],28.3 µM (active)
same,EC50,[13],6.8 µM (active)
same,EC50,Streptococcus,< 0.06 µM (active)
same,CC50,[14],1.32 µM (active)
same,CC50,[15],> 20 µM (active)
same,IC50,cells [16],0.65 µM (active)
same,AC50,HEK293,4.01 µM (active)
same,GI50,P388/ADR,7.74 µM (inactive)
same,GI50,SN12K1,3.9 µM (inactive)
same,GI50,P388,1.88 µM (inactive)
same,EC50,cells [17],0.088 µM (active)
C=CCN1C(=O)NC2(O)C(=O)c3ccccc3C12O (centres undefined),IC50,[8],12.7 µM (active)
same,IC50,[9],56.3 µM (active)
Cc1ccc(NC(=O)c2cc(N3C(=O)C=CC3=O)ccc2Cl)cc1C,IC50,[18],5.4 µM (active)
same,IC50,[19],50 µM (inactive)
same,IC50,Beta-galactosidase,> 66.6 µM (inactive)
same,AC50,[20],1.5 µM (active)
COc1ccc(S(=O)(=O)N2CCOCC2)cc1NC(=O)c1sc2cccc(F)c2c1C,IC50,Cannabinoid receptor 2 [21],> 32 µM (inactive)
same,EC50,[22],> 32 µM (inactive)
same,EC50,Cannabinoid receptor 2 [23],> 32 µM (inactive)
same,EC50,[24],> 32 µM (inactive)
same,IC50,Cannabinoid receptor 1 [25],> 32 µM (inactive)
same,EC50,Cannabinoid receptor 1 [26],> 32 µM (inactive)
same,IC50,[27],> 32 µM (inactive)
O=C(CSc1nc2ccccc2o1)N1c2ccccc2Sc2ccccc21,EC50,[6],> 32 µM (inactive)
CN(C)S(=O)(=O)c1ccc(N2CCCC2)c(C(=O)N2CCN(c3ccccc3)CC2)c1,IC50,Cannabinoid receptor 2 [21],> 32 µM (inactive)
same,EC50,[22],1.67 µM (active)
same,EC50,Cannabinoid receptor 2 [23],> 32 µM (inactive)
same,EC50,[24],> 32 µM (inactive)
same,IC50,Cannabinoid receptor 1 [25],> 32 µM (inactive)
same,EC50,Cannabinoid receptor 1 [26],> 32 µM (inactive)
same,IC50,[27],> 32 µM (inactive)
